{
  "source": "patent US8383607B2",
  "about": "“Perifosine and capecitabine as a combined treatment for cancer” (AEterna Zentaris GmbH, priority 2011, dated 2013)",
  "key": {"[1]": {"details": "cited from earlier work; for time of peak blood level after administration: after capecitabine administration"}, "[2]": {"tested_on": "metastatic colorectal cancer", "assay": "Phase II randomized placebo-controlled expanded study: perifosine with capecitabine vs capecitabine alone", "assay_type": "in vivo, human", "protocol": "As outlined above, the randomized placebo-controlled study was performed in order to evaluate the effects of perifosine in combination with various cytotoxic agents (i.e., gemcitabine, paclitaxel, docetaxel, doxorubicin, capecitabine, pemetrexed, irinotecan and pegylated liposomal doxorubicin) and to determine if co-administering perifosine and each of these cytotoxic agents results in synergy, and if such synergy overcomes resistance to chemotherapy in cancer cells.\nThe study was performed on patients having breast cancer, non-small cell lung cancer, colorectal cancer, prostate cancer, ovarian cancer, head and neck cancer or soft tissue sarcoma, who had received at least one prior chemotherapy regimen. The prior regimen must have been different than the single agent administered in this study. Each patient received a single agent chemotherapy regimen which was judged by a physician as likely to be as beneficial to the patient as any other available therapy.\nPatients received either 50 mg perifosine or placebo daily in combination with single-agent chemotherapy.\nCapecitabine: 825 mg/m^2 twice per day (i.e., 1650 mg/m^2 per day) on days 1-14 every 3 weeks, administered orally (used to treat breast, colorectal, head and neck, prostate, and ovarian cancers);\nThe time to progression (TTP) was a primary endpoint for the various treatment groups. Overall survival (OS) rates and overall response rates (ORR) of the patients and the proportion of progression-free patients were secondary endpoints. In addition, the safety of the combined treatments was also evaluated.\nProgression and response (complete response or partial response) were determined according to RECIST 1.0 criteria.\nThe Kaplan-Meier method was used to calculate times to progression and overall survival. Median values of the TTP and OS were calculated, as well as the confidence intervals (CI) of the TTP and OS at a 95% confidence level. P-values were calculated for the differences between different treatments.\nSafety of treatments was assessed by monitoring adverse events, which were graded according to the NCI CTCAE version 3.0."}, "[3]": {"tested_on": "refractory advanced colorectal cancer", "assay": "Phase I clinical study: safety of 50 mg perifosine daily with 1000 mg/m^2 capecitabine twice per day", "details": "first dose perifosine vs perifosine for eleven days", "protocol": "A Phase I clinical study was performed for evaluating the safety of 50 mg perifosine daily in combination with 1000 mg/m^2 capecitabine twice per day in patients with refractory advanced colorectal cancer. During a 21 day cycle, perifosine was administered every day, whereas capecitabine was administered orally on days 1-14 of the cycle.\nThe study was performed on patients having 3rd line or higher metastatic colorectal cancer, with no prior exposure to perifosine, and who had received, or were not candidates for, regimens containing 5-fluorouracil, oxaliplatin, irinotecan, bevacizumab, and cetuximab or panitumumab. The patients had at least one measurable lesion, as well as adequate bone marrow, liver and renal function.\nToxicity was graded according to the NCI CTCAE version 3.0, and dose limiting toxicity was defined as any of the following: […]\na) Grade 3 non-hematological toxicity except alopecia, which is not reversible Grade 2 or less within 96 hours; or\nPhysical examination (including vital signs, weight and ECOG performance score) was performed prior to initiation of the treatment, and on day 1 (±3 days) of every cycle thereafter. Adverse event evaluations were monitored and reported promptly."}, "[4]": {"tested_on": "Advancing colorectal cancer (ACRC); Metastatic colorectal cancer (MCRC)", "details": "cited from earlier work"}, "[5]": {"tested_on": "breast cancer, non-small cell lung cancer, colorectal cancer, prostate cancer, ovarian cancer, head and neck cancer or soft tissue sarcoma", "assay": "Phase II portion: perifosine or placebo with single-agent chemotherapy regimens", "assay_type": "in vivo, human", "details": "50 mg perifosine or placebo daily with single-agent chemotherapy", "protocol": "The prior regimen must have been different than the single agent administered in this study. Each patient received a single agent chemotherapy regimen which was judged by a physician as likely to be as beneficial to the patient as any other available therapy. […] The single-agent chemotherapy regimens were as follows: Paclitaxel: 175 mg/m^2 every 3 weeks or 80 mg/m^2 on days 1, 8 and 15 every 4 weeks, by intravenous infusion over 1 to 3 hours (used to treat breast, prostate and lung cancers); Docetaxel: 75 mg/m^2 every 3 weeks or 35 mg/m^2 on days 1, 8 and 15 every 4 weeks, by intravenous infusion over 1 hour (used to treat head and neck, lung, ovarian and prostate cancers); Gemcitabine: 1000 mg/m^2 on days 1 and 8 every 3 weeks, by infusion over 30 minutes (used to treat sarcoma and lung, ovarian, breast and head and neck cancers); Doxorubicin: 60 mg/m^2 every 3 weeks, by infusion over 30 minutes (used to treat sarcoma and prostate, ovarian, and breast cancers); Pegylated liposomal doxorubicin: 40 mg/m^2 every 4 weeks, by infusion over 30 minutes (used to treat sarcoma and ovarian and breast cancers); Capecitabine: 825 mg/m^2 twice per day (i.e., 1650 mg/m^2 per day) on days 1-14 every 3 weeks, administered orally (used to treat breast, colorectal, head and neck, prostate, and ovarian cancers); Pemetrexed: 500 mg/m^2 every 3 weeks, by intravenous infusion over 10 minutes (used to treat lung and colorectal cancers); and Irinotecan: 100 mg/m^2 on days 1, 8 and 15 every 4 weeks, by intravenous infusion over 90 minutes (used to treat sarcoma and colorectal and lung cancers). The time to progression (TTP) was a primary endpoint for the various treatment groups. Overall survival (OS) rates and overall response rates (ORR) of the patients and the proportion of progression-free patients were secondary endpoints. In addition, the safety of the combined treatments was also evaluated. […] The Kaplan-Meier method was used to calculate times to progression and overall survival. Median values of the TTP and OS were calculated, as well as the confidence intervals (CI) of the TTP and OS at a 95% confidence level. P-values were calculated for the differences between different treatments."}, "[6]": {"details": "5-FU-refractory metastatic colorectal cancer patients, listed as capecitabine alone"}, "[7]": {"details": "5-FU-refractory metastatic colorectal cancer patients, listed as placebo+capecitabine"}, "[8]": {"details": "after 12 weeks, 5-FU refractory evaluable patients (14 combination, 11 capecitabine alone)"}, "[9]": {"details": "after 12 weeks, evaluable metastatic colorectal cancer patients (20 combination, 15 capecitabine alone)"}, "[10]": {"details": "all metastatic colorectal cancer patients, 50 mg perifosine or placebo daily + capecitabine 1650 mg/m^2 per day days 1-14 every 21 days"}, "[11]": {"details": "2x daily 1250 mg/m2 (total 2500 mg/m2), MCRC, Asia-Pac J Clin Oncol. 2011, 82-87"}, "[12]": {"details": "2x daily 1000-1250 mg/m2, ACRC, Acta Oncologica, 2005, 44: 236-239"}, "[13]": {"details": "7 patients 2x daily 1250 mg/m2, after toxicity dose diluted to 1000 mg/m2, ACRC, Anticancer Res. 26: 1669-1672 (2006)"}},
  "note": "Like-named read-outs stand apart in the source and are kept apart here.",
  "data": [
    {"smiles": "O=c1[nH]cc(F)c(=O)[nH]1", "note": "[5-fluorouracil]", "values": [
      {"measurement": "time of peak blood level after administration", "setting": "[1]", "result": 2, "unit": "h"}
    ]},
    {"smiles": "CCCCCOC(=O)Nc1nc(=O)n([C@@H]2O[C@H](C)[C@@H](O)[C@H]2O)cc1F", "note": "[capecitabine]", "values": [
      {"measurement": "Median OS", "setting": "[2]; 5-FU refractory", "result": 6.6, "unit": "mo. for 5-FU"},
      {"measurement": "Median TTP", "setting": "[2]; 5-FU refractory", "result": 10, "unit": "weeks for 5-FU"},
      {"measurement": "median overall survival (OS)", "setting": "[2]; [6]", "result": 6.8, "unit": "months"},
      {"measurement": "median time to progression (TTP)", "setting": "[2]; [6]", "result": 10, "unit": "weeks"},
      {"measurement": "median overall survival (OS)", "setting": "[2]; [7]", "result": 6.6, "unit": "months"},
      {"measurement": "median time to progression (TTP)", "setting": "[2]; [7]", "result": 11, "unit": "weeks"},
      {"measurement": "Grade 3 and 4 adverse events: anemia", "setting": "[2]; NCI CTCAE version 3.0", "result": 0, "unit": "%"},
      {"measurement": "Grade 3 and 4 adverse events: hand/foot syndrome", "setting": "[2]; NCI CTCAE version 3.0", "result": 0, "unit": "%"},
      {"measurement": "patients who achieved stable disease (progression-free for 3 months or greater)", "setting": "[2]; [8]", "result": 3},
      {"measurement": "patients with partial response", "setting": "[2]; [8]", "result": "none"},
      {"measurement": "proportion of patients who achieved stable disease", "setting": "[2]; [8]", "result": 27, "unit": "%"},
      {"measurement": "patients who achieved stable disease (progression-free for 3 months or greater)", "setting": "[2]; [9]", "result": 6},
      {"measurement": "patients with partial response", "setting": "[2]; [9]", "result": 1},
      {"measurement": "proportion of patients who achieved stable disease", "setting": "[2]; [9]", "result": 40, "unit": "%"},
      {"measurement": "patients with complete response", "setting": "[2]; after 12 weeks, evaluable metastatic colorectal cancer patients (20 combination, 15 capecitabine alone), RECIST 1.0", "result": "none"},
      {"measurement": "median overall survival (OS)", "setting": "[2]; [10]", "result": 10.9, "unit": "months"},
      {"measurement": "median time to progression (TTP)", "setting": "[2]; [10]", "result": 11, "unit": "weeks"},
      {"measurement": "Median OS", "setting": "[2]; all patients", "result": "refractory; 10.9 mo."},
      {"measurement": "Median TTP", "setting": "[2]; all patients", "result": "refractory; 11 weeks"},
      {"measurement": "patients who discontinued treatment due to an adverse event", "setting": "[2]; in vivo", "result": 2},
      {"measurement": "PK parameters for capecitabine or its metabolites, Cycle 1 Day 1 vs Cycle 1 Day 11", "setting": "[3]", "result": "no statistically significant differences"},
      {"measurement": "time of peak blood level after administration", "setting": "[1]", "result": "about 1.5 hours"},
      {"measurement": "effect of food on capecitabine absorption", "setting": "[1]; in vivo", "result": "reduces both the rate and extent"},
      {"measurement": "elimination half-life", "setting": "[1]; in vivo", "result": "about ¾"},
      {"measurement": "Median OS", "setting": "[4]; [11]", "result": 5.3, "unit": "months"},
      {"measurement": "Median TTP", "setting": "[4]; [11]", "result": 2.3, "unit": "months"},
      {"measurement": "Median OS", "setting": "[4]; [12]", "result": 6.1, "unit": "mos."},
      {"measurement": "Median TTP", "setting": "[4]; [12]", "result": 2.8, "unit": "mos."},
      {"measurement": "Median OS", "setting": "[4]; [13]", "result": 5.2, "unit": "mos."},
      {"measurement": "Median TTP", "setting": "[4]; [13]", "result": 4, "unit": "mos."}
    ]},
    {"smiles": "CC(=O)O[C@@]12CO[C@@H]1C[C@H](O)[C@@]1(C)C(=O)[C@H](O)C3=C(C)[C@@H](OC(=O)[C@H](O)[C@@H](NC(=O)OC(C)(C)C)c4ccccc4)C[C@@](O)([C@@H](OC(=O)c4ccccc4)[C@H]21)C3(C)C", "note": "[docetaxel]", "values": [
      {"measurement": "beneficial effect of perifosine (improvement in combination with perifosine) in subjects receiving the chemotherapeutic agent", "setting": "[5]", "result": "not to occur"}
    ]},
    {"smiles": "COc1cccc2c1C(=O)c1c(O)c3c(c(O)c1C2=O)C[C@@](O)(C(=O)CO)C[C@@H]3O[C@H]1C[C@H](N)[C@H](O)[C@H](C)O1", "note": "[doxorubicin]", "values": [
      {"measurement": "beneficial effect of perifosine (improvement in combination with perifosine) in subjects receiving the chemotherapeutic agent", "setting": "[5]", "result": "not to occur"}
    ]},
    {"smiles": "Nc1ccn([C@@H]2O[C@H](CO)[C@@H](O)C2(F)F)c(=O)n1", "note": "[gemcitabine]", "values": [
      {"measurement": "beneficial effect of perifosine (improvement in combination with perifosine) in subjects receiving the chemotherapeutic agent", "setting": "[5]", "result": "not to occur"}
    ]},
    {"smiles": "CCc1c2c(nc3ccc(OC(=O)N4CCC(N5CCCCC5)CC4)cc13)-c1cc3c(c(=O)n1C2)COC(=O)[C@]3(O)CC", "note": "[irinotecan]", "values": [
      {"measurement": "beneficial effect of perifosine (improvement in combination with perifosine) in subjects receiving the chemotherapeutic agent", "setting": "[5]", "result": "not to occur"}
    ]},
    {"smiles": "CC(=O)O[C@H]1C(=O)[C@@]2(C)[C@H]([C@H](OC(=O)c3ccccc3)[C@]3(O)C[C@H](OC(=O)[C@H](O)[C@@H](NC(=O)c4ccccc4)c4ccccc4)C(C)=C1C3(C)C)[C@]1(OC(C)=O)CO[C@@H]1C[C@@H]2O", "note": "[paclitaxel]", "values": [
      {"measurement": "beneficial effect of perifosine (improvement in combination with perifosine) in subjects receiving the chemotherapeutic agent", "setting": "[5]", "result": "not to occur"}
    ]},
    {"smiles": "Nc1nc2[nH]cc(CCc3ccc(C(=O)N[C@@H](CCC(=O)O)C(=O)O)cc3)c2c(=O)[nH]1", "note": "[pemetrexed]", "values": [
      {"measurement": "beneficial effect of perifosine (improvement in combination with perifosine) in subjects receiving the chemotherapeutic agent", "setting": "[5]", "result": "not to occur"}
    ]}
  ]
}
